Molecular target: T1, human GPR109A (Homo sapiens, UniProt Q8TDS4)
T1 construct: expressed in transfected cells
Test: Intracellular cAMP levels in forskolin-treated GPR109A-expressing colonic cells, measured by fluorescence (cAMP-Glo Assay)
Format: cell-based
Details: cAMP reduction in forskolin-treated cells; read-out: EC50 to activate the GPR109A receptors
Source text: The activity of GI-coupled receptors like GPR109A is normally assessed by showing a reduction in cellular levels of cAMP in forskolin-treated cells. This is normally done using the commercially available kit, cAMP-Glo™ Assay. […] When a GI-coupled receptor is activated in forskolin-treated cells, cAMP levels will go up.

T1 sequence (Q8TDS4 whole entry): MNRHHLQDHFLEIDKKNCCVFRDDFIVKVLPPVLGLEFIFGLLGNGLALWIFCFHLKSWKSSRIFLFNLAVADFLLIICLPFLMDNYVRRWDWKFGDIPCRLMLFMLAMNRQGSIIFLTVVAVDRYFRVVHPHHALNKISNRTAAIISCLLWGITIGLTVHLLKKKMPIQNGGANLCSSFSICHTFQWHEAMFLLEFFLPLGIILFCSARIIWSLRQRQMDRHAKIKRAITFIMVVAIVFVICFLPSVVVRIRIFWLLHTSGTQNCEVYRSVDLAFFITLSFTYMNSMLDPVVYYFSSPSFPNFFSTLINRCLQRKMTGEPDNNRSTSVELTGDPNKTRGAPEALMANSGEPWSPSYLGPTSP

EC50: 250 to 2500 µM
SMILES: CC(C)(O)CC(=O)O [HMB, beta-hydroxy-beta-methylbutyrate]
